Measured values from patent publication US11840686B2, “Modulation of prekallikrein (PKK) expression” (Ionis Pharmaceuticals, Inc., priority 2013, dated 2023).
Strand notation (5' to 3'): a small letter for the sugar, then the base; units joined by * are phosphorothioate-linked, units joined directly phosphodiester-linked; [ ] holds rarer units or linkages, { } end groups; capitals alone tell only the bases. e = 2'-O-(2-methoxyethyl) (MOE); [5mC] = 5-methylcytosine; d = 2'-deoxy (DNA)

Tested on: human PKK mRNA
Experiment: Antisense inhibition of human PKK mRNA in HepaRG cells, 5,000 nM (Example 2)
Type: cell-based
Summary of the method: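 qRT-PCR (RTS3454) read-out, RIBOGREEN-normalized; % inhibition vs untreated cells. HepaRG, 20,000 cells/well, electroporation, 5,000 nM ASO, ~24 h.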

[1] = Table 7, HepaRG cells, electroporation with 5,000 nM antisense oligonucleotide, approx. 24 hours, PKK mRNA by RT-PCR (RTS3454), relative to untreated control cells
[2] = HepaRG cells, 5,000 nM antisense oligonucleotide, 5-10-5 gapmers, Table 17
[3] = human PKK mRNA in HepaRG cells, 5-10-5 gapmers, Table 14
[4] = Table 9 experiment, HepaRG cells, 20,000 cells per well, electroporation with 5,000 nM antisense oligonucleotide, approx. 24 hours, PKK mRNA by RT-PCR (RTS3454), relative to untreated control cells
[5] = Table 10 experiment, HepaRG cells, 20,000 cells per well, electroporation with 5,000 nM antisense oligonucleotide, approx. 24 hours, PKK mRNA by RT-PCR (RTS3454), relative to untreated control cells
[6] = Table 13, human PKK mRNA in HepaRG cells, 5-10-5 gapmers
[7] = HepaRG cells, electroporation with 5,000 nM antisense oligonucleotide, approximately 24 hours, PKK mRNA by RT-PCR (RTS3454), relative to untreated control cells, Table 5 experiment
[8] = HepaRG cells, electroporation with 5,000 nM antisense oligonucleotide, approximately 24 hours, PKK mRNA by RT-PCR (RTS3454), relative to untreated control cells, Table 6 experiment
[9] = HepaRG cells, 5,000 nM antisense oligonucleotide, 5-10-5 gapmers, Table 16
[10] = Table 8, HepaRG cells, electroporation with 5,000 nM antisense oligonucleotide, approx. 24 hours, PKK mRNA by RT-PCR (RTS3454), relative to untreated control cells
[11] = HepaRG cells, electroporation, 5,000 nM antisense oligonucleotide, approx. 24 hours, primer probe set RTS3454, relative to untreated control cells, Table 11

Substance: 546238 (e[5mC]*eT*eT*eT*eT*dG*d[5mC]*dA*dG*dG*dT*dT*dA*dA*dA*eA*eG*eG*e[5mC]*eT; antisense) [compound 546238]
- % inhibition [1]: 63%

Substance: 548754 (antisense eA*eT*e[5mC]*eA*d[5mC]*dT*dG*dT*dA*d[5mC]*dT*dA*dG*dT*eT*eT*e[5mC]*e[5mC]) [compound 548754]
- % inhibition (human PKK mRNA, HepaRG cells, 5,000 nM antisense oligonucleotide, Table 18): 77%

Substance: 547627 (antisense eT*e[5mC]*eT*eA*e[5mC]*d[5mC]*dT*dA*dT*dA*dA*d[5mC]*dT*d[5mC]*dT*eA*eA*e[5mC]*eA*eG) [compound 547627]
- % inhibition (human PKK mRNA, HepaRG cells, 5-10-5 motif oligonucleotides targeting SEQ ID NO: 1 and 10): 71%

Substance: 547013 (eT*eG*eA*eG*eA*dT*dT*dG*dG*dT*dG*dG*dT*dG*dG*eG*eT*eG*eG*e[5mC]; antisense) [compound 547013]
- % inhibition [2]: 0%

Substance: 546863 (eT*eA*eA*e[5mC]*eT*dA*dT*dA*dA*d[5mC]*dA*dA*dT*dA*dT*e[5mC]*eA*e[5mC]*eT*eG; antisense) [compound 546863]
- % inhibition [3]: 21%

Substance: 547468 (antisense eG*eT*eT*eG*eG*dT*dA*dT*dA*dA*dA*dT*dT*dG*dT*eG*e[5mC]*eT*eT*eG) [compound 547468]
- % inhibition [4]: 61%
- % inhibition [5]: 46%

Substance: 546235 (eG*eG*e[5mC]*eT*eA*dT*dA*dT*d[5mC]*d[5mC]*dA*dG*dA*dT*dA*eT*eG*eG*eT*eG; antisense) [compound 546235]
- % inhibition [1]: 77%

Substance: 546844 (eG*eT*e[5mC]*e[5mC]*eT*dA*dT*dA*dT*d[5mC]*dA*d[5mC]*dT*dG*dT*e[5mC]*e[5mC]*eT*eA*eT; antisense) [compound 546844]
- % inhibition [6]: 75%

Substance: 546148 (e[5mC]*eG*eT*eT*eT*dT*d[5mC]*dA*dT*dA*dG*dA*dG*dT*dT*eG*eA*eG*eT*e[5mC]; antisense) [compound 546148]
- % inhibition [7]: 68%

Substance: 547318 (antisense e[5mC]*e[5mC]*eA*eG*eA*dA*dA*d[5mC]*dT*dG*d[5mC]*dA*d[5mC]*d[5mC]*dT*eG*eT*eT*e[5mC]*eG) [compound 547318]
- % inhibition [8]: 74%

Substance: 546529 (eG*e[5mC]*eA*e[5mC]*e[5mC]*dT*dG*dG*d[5mC]*dA*dG*dA*dA*d[5mC]*dA*eG*eT*eA*e[5mC]*e[5mC]; antisense) [compound 546529]
- % inhibition [9]: 65%

Substance: 547398 (e[5mC]*eA*eG*eG*eG*dT*dT*d[5mC]*dA*dG*dG*dT*dA*dA*dA*eG*eT*eT*e[5mC]*eT; antisense) [compound 547398]
- % inhibition [1]: 16%

Substance: 547436 (antisense e[5mC]*eT*e[5mC]*e[5mC]*e[5mC]*d[5mC]*dA*dA*dG*dA*dA*dG*dA*dG*dT*eT*eT*eG*eT*eT) [compound 547436]
- % inhibition [10]: 0%

Substance: 547588 (eA*e[5mC]*eT*eA*eT*dA*dA*d[5mC]*dA*dG*dT*dA*dT*d[5mC]*dA*e[5mC]*eT*eG*eT*e[5mC]; antisense) [compound 547588]
- % inhibition [3]: 83%

Substance: 547736 (eT*eG*eG*eT*eA*dG*dG*dA*dT*dT*dG*dG*dT*dG*dG*eT*eG*eG*eG*eA; antisense) [compound 547736]
- % inhibition [2]: 54%

Substance: 547025 (eT*eG*eG*eT*eG*dG*dT*dG*dG*dG*dA*dT*dT*dG*dG*eT*eG*eG*eT*eT; antisense) [compound 547025]
- % inhibition [2]: 72%

Substance: 547071 (eG*e[5mC]*eA*eG*e[5mC]*d[5mC]*d[5mC]*d[5mC]*d[5mC]*d[5mC]*dA*dG*dA*dA*dA*eT*e[5mC]*e[5mC]*e[5mC]*eA; antisense) [compound 547071]
- % inhibition [2]: 27%

Substance: 547601 (antisense eG*eT*eA*e[5mC]*e[5mC]*dT*dA*dT*dA*dA*d[5mC]*dT*d[5mC]*dT*dA*eA*e[5mC]*eA*eG*eT) [compound 547601]
- % inhibition [3]: 75%

Substance: 547582 (eT*eA*eT*eA*eT*d[5mC]*dA*d[5mC]*dT*dG*dT*d[5mC]*d[5mC]*dT*dA*eT*eA*eA*e[5mC]*eT; antisense) [compound 547582]
- % inhibition [6]: 22%

Substance: 546256 (eT*e[5mC]*eA*eT*e[5mC]*dT*dT*dT*dG*dT*dG*d[5mC]*dA*dA*dG*eT*e[5mC]*eT*e[5mC]*eT; antisense) [compound 546256]
- % inhibition [10]: 83%

Substance: 547745 (eT*eT*eG*eG*eT*dG*dG*dT*dG*dG*dG*dA*dT*dT*dG*eG*eT*eG*eG*e[5mC]; antisense) [compound 547745]
- % inhibition [2]: 55%

Substance: 546196 (antisense e[5mC]*eA*e[5mC]*eT*eG*d[5mC]*dT*dA*dA*d[5mC]*d[5mC]*dT*dT*dA*dG*eA*e[5mC]*eA*e[5mC]*eA) [compound 546196]
- % inhibition [8]: 83%

Substance: 547565 (e[5mC]*eT*eT*eA*eT*d[5mC]*dA*dG*dT*d[5mC]*d[5mC]*d[5mC]*dA*dG*dT*e[5mC]*eA*eT*eG*eT; antisense) [compound 547565]
- % inhibition [6]: 63%

Substance: 546157 (eG*eG*eG*eT*eG*dG*dA*dA*dT*dG*dT*dG*d[5mC]*dA*d[5mC]*e[5mC]*eT*e[5mC]*eA*eT; antisense) [compound 546157]
- % inhibition [7]: 85%

Substance: 547774 (antisense eG*eA*eG*eA*e[5mC]*dA*dG*dT*dT*dT*dG*dG*d[5mC]*dA*dA*eG*e[5mC]*eT*eA*e[5mC]) [compound 547774]
- % inhibition [2]: 46%

Substance: 547717 (eA*e[5mC]*eT*e[5mC]*eT*dG*dG*d[5mC]*dA*d[5mC]*dT*dG*dG*dT*d[5mC]*eA*eT*eG*eG*eA; antisense) [compound 547717]
- % inhibition [9]: 54%

Substance: 547495 (antisense eG*e[5mC]*eT*eG*eG*dT*dG*dA*d[5mC]*dT*dG*d[5mC]*dA*dT*d[5mC]*eT*eG*eA*eG*e[5mC]) [compound 547495]
- % inhibition [11]: 61%

Substance: 546172 (antisense eA*eA*e[5mC]*eA*e[5mC]*dT*dA*dT*d[5mC]*dT*dT*dT*d[5mC]*dA*dA*eG*eA*eA*eG*e[5mC]) [compound 546172]
- % inhibition [7]: 81%

Substance: 546791 (eG*eA*eT*eG*e[5mC]*dA*dT*dG*d[5mC]*dA*dG*d[5mC]*dA*dA*dT*eA*e[5mC]*eA*eG*eG; antisense) [compound 546791]
- % inhibition [6]: 52%

Substance: 546271 (eA*eG*eA*eA*eA*d[5mC]*dA*d[5mC]*dT*dT*dA*d[5mC]*dA*d[5mC]*dT*eT*e[5mC]*eT*e[5mC]*eT; antisense) [compound 546271]
- % inhibition [10]: 60%

Substance: 548716 (DNA eT*eA*eT*d[5mC]*dA*d[5mC]*dT*dG*dT*dA*d[5mC]*dT*dA*eG*eT*eT; antisense) [compound 548716]
- % inhibition (HepaRG cells, 5,000 nM antisense oligonucleotide, human PKK mRNA, Table 18): 10%

Substance: 547452 (antisense eG*eT*eT*eT*eT*dG*dG*dT*dG*dA*dA*dT*dA*dA*dT*eA*eA*eT*e[5mC]*eT) [compound 547452]
- % inhibition [4]: 47%
- % inhibition [5]: 62%

Substance: 547049 (e[5mC]*eA*e[5mC]*eT*eT*d[5mC]*d[5mC]*d[5mC]*dA*dG*d[5mC]*dA*dA*d[5mC]*d[5mC]*e[5mC]*eT*e[5mC]*eA*e[5mC]; antisense) [compound 547049]
- % inhibition [2]: 20%

Substance: 546279 (eG*e[5mC]*eT*e[5mC]*e[5mC]*d[5mC]*dT*dT*dG*dT*dG*dT*d[5mC]*d[5mC]*d[5mC]*eA*eT*eA*e[5mC]*eG; antisense) [compound 546279]
- % inhibition [10]: 82%

Substance: 546166 (eT*eG*eT*e[5mC]*eA*dT*dT*dG*dA*dT*dT*dG*dA*dA*d[5mC]*eT*eT*eG*e[5mC]*eT; antisense) [compound 546166]
- % inhibition [7]: 70%

Substance: 547766 (antisense eG*e[5mC]*e[5mC]*eT*e[5mC]*dT*d[5mC]*dA*dG*dA*d[5mC]*dG*dG*d[5mC]*dA*e[5mC]*eA*eG*eA*e[5mC]) [compound 547766]
- % inhibition [2]: 0%

Substance: 547539 (antisense eA*eG*eA*eA*e[5mC]*dT*d[5mC]*d[5mC]*dA*dG*d[5mC]*dA*dG*dA*dA*eA*eT*e[5mC]*e[5mC]*eT) [compound 547539]
- % inhibition (HepaRG cells, electroporation, 5,000 nM antisense oligonucleotide, approx. 24 hours, primer probe set RTS3454, relative to untreated control cells, Table 12): 43%

Substance: 546359 (antisense eG*e[5mC]*eA*eT*e[5mC]*dT*dG*dA*dG*d[5mC]*dT*dT*dT*dT*d[5mC]*e[5mC]*eA*eT*e[5mC]*eA) [compound 546359]
- % inhibition [11]: 79%

Substance: 546173 (antisense e[5mC]*eG*eA*eT*eG*dT*dA*d[5mC]*dT*dT*dT*dT*dG*dG*d[5mC]*eA*eG*eG*eG*eT) [compound 546173]
- % inhibition [7]: 84%
